EP2289553A1 (ETH Zurich, priority 2009, dated 2011)
Like-named read-outs stand apart in the source and are kept apart here.

Legend:
[1] = pKa determination by titration; assay type: physicochemical; details: titration in Millipore water containing 150 mM NaCl, for nitrocatechols and mimosine one of the pKa values
Method: pKa determination: 2 mM of the respective anchoring group was dissolved in Millipore water containing 150 mM NaCl. These solutions were titrated with 0.1 M HCl and NaOH respectively using a SevenMulti pH meter (Mettler Toledo, Switzerland).

[2] = Dispersant binding reversibility: successive filtrations and re-dispersions in HEPES, followed by DLS; assay type: physicochemical; details: room temperature, anchor named, coupled to PEG(MW 5 kDa)
Method: DLS: DLS experiments were run on a Zetasizer Nano ZS (Malvern, UK) in the 173° backscattering mode. Because intensity weighted diameters scale with r^6 and thus large particles are predominant, volume weighted data which scale with r^3 were analyzed using the multiple narrow modes evaluation incorporated into the Malvern software. Temperature dependent DLS experiments have been performed in HEPES at an iron oxide nanoparticle concentration of 200 µg/ml. Solutions were filtered with 200 nm Minisart syringe filters (Sartorius, Germany) prior to DLS analysis. These suspensions were heated from 25 to 90°C in 5°C steps with 10 min equilibration time before the respective DLS experiment. The dispersant binding reversibility was tested on iron oxide nanoparticle HEPES solutions (500 µg/ml) at room temperature. Solutions were repeatedly filtered using Microcon filters with a cut-off of 30 kDa (Millipore, MA, USA) by centrifuging these solutions at […] for 20 min (MiniSpin, Vaudaux Eppendorf, Switzerland). After filtration, the filter cake was re-suspended in HEPES (0.5 ml) and equilibrated for 24 h at room temperature before the next DLS experiment was performed.
The binding reversibility of these dispersants was tested by successive filtrations and re-dispersions of the resulting iron oxide nanoparticle filter cakes in HEPES

Row | Compound | pKa [1] | number of filtrations within which nanoparticles agglomerated [2] | pKa ([1]; read-out: pKa) | number of filtrations for which nanoparticles remained stable [2]
1 | NCCc1cc(O)c(O)cc1[N+](=O)[O-] [nitrodopamine] | around 6.5 |  |  | 
2 | NCCc1ccc(O)c(O)c1 [dopamine] |  | 0-3 filtrations | > 9 | 
3 | hydroxypyrone |  | 0-3 filtrations |  | 
4 | hydroxypyridine |  | 0-3 filtrations |  | 
5 | NC(Cn1ccc(=O)c(O)c1)C(=O)O (stereo not shown) [mimosine] |  | 5-7 filtrations | ~6.5 | 
6 | hydroxydopamine | > 9 | 0-3 filtrations |  | 
7 | NC(Cc1cc(O)c(O)cc1[N+](=O)[O-])C(=O)O (stereo not shown) |  |  | ~6.5 | more than 9 filtrations
8 | N[C@@H](Cc1ccc(O)c(O)c1)C(=O)O [DOPA] |  | 5-7 filtrations | > 9 | 
